Data from patent US7429673B2, “TRPV1 agonists, formulations containing them and uses thereof” (priority 2004, dated 2008).
Read-outs that look alike come from different tables or passages of the source.

How the values were obtained:
[1] = target: T1, human TRPV1 (Homo sapiens, UniProt Q8NER1); test: intracellular calcium in HEK-293 cells overexpressing human TRPV1; assay type: cell-based; conditions: 4 μM ionomycin as maximum reference
T1 construct: expressed in transfected cells; host or cells: HEK-293
T1 sequence (Q8NER1 whole entry): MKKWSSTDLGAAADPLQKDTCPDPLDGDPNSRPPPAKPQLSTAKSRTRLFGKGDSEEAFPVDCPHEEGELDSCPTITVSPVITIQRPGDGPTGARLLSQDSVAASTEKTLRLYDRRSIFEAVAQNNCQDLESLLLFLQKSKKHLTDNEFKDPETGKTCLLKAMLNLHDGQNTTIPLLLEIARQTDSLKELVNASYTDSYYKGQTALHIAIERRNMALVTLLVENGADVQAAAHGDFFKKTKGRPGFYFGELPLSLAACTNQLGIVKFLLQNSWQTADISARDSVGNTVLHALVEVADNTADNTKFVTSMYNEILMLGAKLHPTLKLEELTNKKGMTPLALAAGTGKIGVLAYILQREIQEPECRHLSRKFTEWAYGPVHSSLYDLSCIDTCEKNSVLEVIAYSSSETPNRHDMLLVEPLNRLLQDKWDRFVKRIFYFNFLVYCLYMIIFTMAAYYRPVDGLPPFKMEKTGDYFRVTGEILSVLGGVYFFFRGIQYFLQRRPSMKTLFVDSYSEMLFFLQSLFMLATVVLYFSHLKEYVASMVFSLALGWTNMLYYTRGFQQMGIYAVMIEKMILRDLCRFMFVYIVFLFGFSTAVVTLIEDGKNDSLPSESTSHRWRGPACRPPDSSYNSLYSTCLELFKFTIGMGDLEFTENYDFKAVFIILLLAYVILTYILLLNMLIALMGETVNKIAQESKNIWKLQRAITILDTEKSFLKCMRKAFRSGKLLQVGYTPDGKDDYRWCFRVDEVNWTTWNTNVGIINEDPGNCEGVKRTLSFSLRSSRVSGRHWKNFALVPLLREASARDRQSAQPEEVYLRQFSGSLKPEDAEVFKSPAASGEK

[2] = system: Sprague Dawley rats; test: in vivo test of induced urinary incontinence (partial urethral obstruction); set-up: species or system rat; conditions: operated rats; for N^o of minctions per hour: 8 weeks after urethral obstruction, instilled in the bladder in ethanol at 50 nM for 30 min; for number of minctions per hour, result in words: instilled in the bladder at 50 nM for 30 min
Procedure: The activity of the compound of example 2 was also evaluated in rats through the in vivo test of induced urinary incontinence.
Sprague Dawley rats (250±10 g) were anaesthetized with chloral hydrate. The urinary bladder was opened through an incision along the abdomen median line, and the adipose tissue surrounding the urethra and ureters was removed. The proximal urethra was then tied up with non-absorbable surgery thread to create partial urethral obstruction.
On the treatment day, the compound of example 2, the compound prepared according to Appendino et al. and resiniferotoxin as the reference standard were solubilised in ethanol and instilled in the bladder at the concentration of 50 nM. The instillation lasted 30 min: during this period the infusion pump for the saline was turned off. After incubation, the bladder was emptied of any medicament solution, then the infusion pump was turned on again.

[3] = in DMSO, read-out: pEC50 DMSO (pEC50 values for TPVR1) (converted)
[4] = in methanol, read-out: pEC50 methanol (pEC50 values for TPVR1) (converted)

Compound | EC50 [1, 3] [nM] | EC50 [1, 4] [nM] | N^o of minctions per hour [2] [per hour] | number of minctions per hour, result in words [2] | further results
CCCCCC[C@H](CC1CC1CCCCCCCC(=O)NCc1ccc(O)c(OC)c1)OC(=O)Cc1ccccc1 (some centres unmarked) [Compound of example 12, 9,10-Methylen-12-Phenylacetyl Rinvanil I] | 0.12 | 0.158 |  |  | 
C=C(C)[C@]12C[C@@H](C)[C@@]34O[C@](Cc5ccccc5)(O[C@@H]1[C@@H]3C=C(COC(=O)Cc1ccc(O)c(OC)c1)C[C@]1(O)C(=O)C(C)=C[C@@H]41)O2 [Resiniferotoxin, resiniferotoxin, reference compound] |  |  | 17 ± 2 | remained similar to that of non-operated animals | 
CCCCCC[C@H](C/C=C\CCCCCCCC(=O)NCc1ccc(O)c(OC)c1)OC(C)=O | 0.501 |  |  |  | pEC50 methanol (pEC50 values for TPVR1) ([1]; in methanol): 9.40 ± 0.18
CCCCCC[C@H](CC1OC1CCCCCCCC(=O)NCc1ccc(O)c(OC)c1)OC(=O)Cc1ccccc1 (some centres unmarked) [Compound of example 15, 9,10-Epoxy-12-Phenylacetyl Rinvanil] | 5.37 | 4.07 |  |  | 
CCCCCC[C@H](C/C=C\CCCCCCCC(=O)NCc1ccc(O)c(OC)c1)OC(=O)Cc1ccccc1 [Compound of example 2, 12-Phenylacetyl Rinvanil] |  |  | 19 ± 2 | remained similar to that of non-operated animals | EC50 ([1]; pEC50 DMSO (pEC50 values for TPVR1), in DMSO): 0.102 nM; EC50 ([1]; pEC50 methanol (pEC50 values for TPVR1), in methanol): 0.0661 nM
CCCCCC[C@H](C/C=C\CCCCCCCC(=O)NCc1ccc(O)c(OC)c1)OC(=O)c1ccccc1 [Compound of example 9, 12-Benzoyl Rinvanil] | 0.129 | 0.288 |  |  | 
